From patent US20240122957A1, “USE OF NICOTINAMIDE MONONUCLEOTIDE (NMN) FOR THE PREVENTION AND/OR TREATMENT OF RHEUMATOID ARTHRITIS, AND CORRESPONDING COMPOSITIONS” (NUVAMID SA, priority 2019, published 2024)
“Also recorded” adds a separate entry of the source. Where two headings read alike, the source gives them in different places.

Legend:
[1] = Weight and tolerance of mice in the K/BxN serum RA model
Description: (§1) In brief, 8-week-old female C57BL6/J mice, weighing between 18-20 g on day 0 of the experiments, were divided into 4 group of 10 mice each: (i) a control group, in which the mice were treated with vehicle, i.e. a 0.9% NaCl solution (10 mL/kg), marked ‘Vehicle’; (ii) a group of mice treated with K/BxN serum (10 mL/kg), marked ‘KBxN’; (iii) a group of mice treated with K/BxN serum+dexamethasone (1 mg/kg), marked ‘KBxN+dexamethasone’; and (iv) a group of mice treated with K/BxN serum+NMN (185 mg/kg), marked ‘KBxN+NMN’.
(§2) The administration of this serum induced chronic joint inflammation in mice in order to mimic RA. […] Here, NMN was used in zwitterionic form. KBxN serum and NMN were administered intraperitoneally to the nice. Dexamethasone was administered subcutaneously.
(§3) The mice were treated for 9 days under the conditions set forth supra. Photos of the paws of the mice were taken on the 6th day of treatment. […] The clinical score and weight of the mice were measured daily. The clinical score was determined by measuring the thickness of each of the front and rear paws of the mice, and adding the associated score according to table 1 infra:
(§4) The statistical analysis of the results was carried out using two-factor ANOVA combined with the Dunnett multiple comparison test.

[2] = in vivo
Description: as §1, §2, §3, §4

[3] = tested on: C57BL6/J mice treated with K/BxN serum (RA model); assay: K/BxN serum-induced RA model in mice (clinical score, paw thickness, paw photographs); type: in vivo
Description: Here, NMN was used in zwitterionic form. […] Dexamethasone was administered subcutaneously.

SMILES | tolerance ([1]; K/BxN serum-treated mice, NMN 185 mg/kg intraperitoneally, 9 days, FIG. 1) | paw appearance compared to mouse treated with vehicle (photographs) [2] | paw swelling (photographs of the paws) ([3]; day 6 of treatment, compared to mouse treated with K/BxN, FIG. 4) | average paw thickness (ankle joint inflammation) ([3]; versus KBxN group, NMN 185 mg/kg intraperitoneally, dexamethasone 1 mg/kg subcutaneously, FIG. 3) | average clinical score ([3]; versus KBxN group, NMN 185 mg/kg intraperitoneally, dexamethasone 1 mg/kg subcutaneously, measured daily, 9 days, FIG. 2) | paw appearance compared to mouse treated with vehicle (photographs) ([1]; day 6 of treatment, FIG. 4) | average weight of mice (weight loss) ([1]; relative to KBxN group, NMN 185 mg/kg intraperitoneally, dexamethasone 1 mg/kg subcutaneously, 9 days, FIG. 1)
NC(=O)c1ccc[n+]([C@@H]2O[C@H](COP(=O)([O-])O)[C@@H](O)[C@H]2O)c1 [NMN, nicotinamide mononucleotide] | well tolerated | volume similar to that of the mouse treated with vehicle | substantially reduces paw swelling | significantly reduced ankle joint inflammation starting on day 5 | significant reduction in clinical score starting on day 5; also recorded: pronounced starting on day 8 | – | –
C[C@@H]1C[C@H]2[C@@H]3CCC4=CC(=O)C=C[C@]4(C)[C@@]3(F)[C@@H](O)C[C@]2(C)[C@@]1(O)C(=O)CO [dexamethasone] | – | – | – | – | – | much more slender than that of the mouse treated with vehicle | additional and significant weight loss
